Structures can show the parent of a compound that is named as a salt.
Legend:
phospho-AKT at S473 = assay: Cellular p-AKT1/2/3-S473 assay in KPL-4 cells; format: cell-based; conditions: Homo sapiens, KPL4; KPL-4 breast tumour cell line, compound treatment 2 hours; read-out: pAKT-S473 median IC50
p-4E-BP1 at T70 = assay: Cellular p-4E-BP1-T70 assay in KPL-4 cells; format: cell-based; conditions: Homo sapiens, KPL4; KPL-4 breast tumour cell line, compound treatment 2 hours; read-out: P4EBP1-T70 median IC50
[1] = test system: MCF-7 breast tumour cell line; assay: Tumor cell proliferation assay (CellTiter-Glo), MCF-7; format: cell-based; conditions: Homo sapiens, MCF7, 72 h drug exposure, read-out: MCF-7 median IC50
Experimental: (§1) Biological Assay 4.0: Tumor Cell Proliferation Assays
(§2) Compounds were tested in a cell-based assay that measures the capacity of the compounds to inhibit tumour cell proliferation following a 72 h drug exposure. Cell viability is determined using CellTiter-Glow® (CTG, Promega, cat#G7571/2/3). The CellTiter-Glo® Luminescent Cell Viability Assay is a homogeneous method to determine the number of viable cells in culture.
(§3) Detection is based on using the luciferase reaction to measure the amount of ATP from viable cells. The amount of ATP in cells correlates with cell viability. Within minutes after a loss of membrane integrity, cells lose the ability to synthesize ATP, and endogenous ATPases destroy any remaining ATP; thus the levels of ATP fall precipitously.
(§4) For each cell line assayed, cells were plated onto a separate plate for determination of fluorescence at t=0 hour and t=72 hour time points. Following overnight incubation at 37° C., chemiluminescence values for the t=0 samples were determined after adding 10 μl medium and 100 μl CTG solution according to manufacture protocol. Plates for the t=72 hour time points were treated with compounds diluted into growth medium at ten times final concentration added in 10 μL to the cell culture plate. Cells were then incubated for 72 hours at 37° C. Chemiluminescence values for the t=72 hour samples were determined. […] Experiments were controlled using a reference compound as standard.

[2] = test system: KPL-4 breast cancer cell line; assay: Tumor cell proliferation assay (CellTiter-Glo), KPL-4; format: cell-based; conditions: Homo sapiens, KPL4, 72 h drug exposure, read-out: KLP-4 median IC50
Experimental: as §1, §2, §3, §4

[3] = target: His-tagged human recombinant kinase full-length Akt1 (Homo sapiens (Human), UniProt P31749); assay: Akt1 kinase assay (Akt1 TR-FRET assay); format: biochemical; conditions: 10 μM ATP, 60 min at 22° C., read-out: Akt1 median IC50
His-tagged human recombinant kinase full-length Akt1, sequence (P31749 whole entry): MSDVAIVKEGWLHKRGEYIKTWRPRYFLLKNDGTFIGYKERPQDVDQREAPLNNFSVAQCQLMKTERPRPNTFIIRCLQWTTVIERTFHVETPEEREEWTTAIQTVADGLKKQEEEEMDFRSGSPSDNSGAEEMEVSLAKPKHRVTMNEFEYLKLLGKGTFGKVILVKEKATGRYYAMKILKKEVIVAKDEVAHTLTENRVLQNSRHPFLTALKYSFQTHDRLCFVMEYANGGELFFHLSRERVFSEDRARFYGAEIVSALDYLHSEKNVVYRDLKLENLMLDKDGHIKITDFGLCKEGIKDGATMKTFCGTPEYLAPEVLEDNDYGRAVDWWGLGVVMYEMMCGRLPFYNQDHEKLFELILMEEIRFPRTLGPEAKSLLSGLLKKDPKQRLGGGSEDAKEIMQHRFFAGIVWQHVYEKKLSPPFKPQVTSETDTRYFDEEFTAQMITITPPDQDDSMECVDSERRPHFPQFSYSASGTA

Compound | IC50 (phospho-AKT at S473) [nM] | IC50 (p-4E-BP1 at T70) [nM] | IC50 [1] [nM] | IC50 [2] [nM] | IC50 [3] [nM]
NC1(c2ccc(-c3nc4ccc(C(F)(F)F)nn4c3-c3ccccc3)cc2)CCC1 [Example 3, 1-{4-[3-Phenyl-6-(trifluoromethyl)imidazo[1,2-b]pyridazin-2-yl]phenyl}-cyclobutanamine] | 360 | 4500 | 1800 | 1700 | –
COC(=O)c1cc(OC)c2nc(-c3ccc(C4(N)CCC4)cc3)c(-c3ccccc3)n2n1 [Example 12, Methyl 2-[4-(1-aminocyclobutyl)phenyl]-8-methoxy-3-phenylimidazo[1,2-b]pyridazine-6-carboxylate] | 52 | 260 | 1800 | 2000 | 21
COc1cc(-c2cn[nH]c2)c2nc(-c3ccc(C4(N)CCC4)cc3)c(-c3ccccc3)n2n1 [Example 15, 1-{4-[6-Methoxy-3-phenyl-8-(1H-pyrazol-4-yl)imidazo[1,2-b]pyridazin-2-yl]phenyl} cyclobutanamine HCl salt] | 590 | 1700 | 1800 | 1800 | 4.4
CCOc1cc(C(=O)NC)nn2c(-c3ccccc3)c(-c3ccc(C4(N)CCC4)cc3)nc12 [Example 22, 2-[4-(1-Aminocyclobutyl)phenyl]-8-ethoxy-N-methyl-3-phenylimidazo[1,2-b]pyridazine-6-carboxamide] | 0.3 | 23 | 240 | 190 | 8
COCCOc1cc(C(N)=O)nn2c(-c3ccccc3)c(-c3ccc(C4(N)CCC4)cc3)nc12 [Example 28, 2-[4-(1-Aminocyclobutyl)phenyl]-8-(2-methoxy-ethoxy)-3-phenylimidazo[1,2-b]pyridazine-6-carboxamide] | 1 | 6.2 | 1800 | 1900 | –
NC1(c2ccc(-c3nc4c(O)ccnn4c3-c3ccccc3)cc2)CCC1 [Example 32, 2-[4-(1-Aminocyclobutyl)phenyl]-3-phenylimidazo[1,2-b]pyridazin-8-ol] | 160 | 2200 | – | – | –
NC1(c2ccc(-c3nc4ccc(-c5ccc(F)cc5)nn4c3-c3ccccc3)cc2)CCC1 [Example 33, 1-{4-[6-(4-Fluorophenyl)-3-phenylimidazo[1,2-b]pyridazin-2-yl]phenyl}cyclobutanamine] | 2900 | – | – | – | 690
NC1(c2ccc(-c3nc4ccc(NC(=O)C(F)(F)F)nn4c3-c3ccccc3)cc2)CCC1 [Example 40, N-{2-[4-(1-Aminocyclobutyl)phenyl]-3-phenylimidazo[1,2-b]pyridazin-6-yl}-2,2,2-trifluoroacetamide] | 2000 | 6100 | 8400 | > 10000 | –

Results, then the compound that gave them:

IC50 (phospho-AKT at S473) [nM] | IC50 (p-4E-BP1 at T70) [nM] | IC50 [1] [nM] | IC50 [2] [nM] | IC50 [3] [nM] | Compound
680 | 1800 | 1900 | 2000 | – | CCOc1nn2c(-c3ccccc3)c(-c3ccc(C4(N)CCC4)cc3)nc2c(C)c1C [Example 55, 1-[4-(6-Ethoxy-7,8-dimethyl-3-phenylimidazo[1,2-b]pyridazin-2-yl)phenyl]-cyclobutanamine]
11 | 100 | – | – | – | NC(=O)c1ccnn2c(-c3ccccc3)c(-c3ccc(C4(N)CCC4)cc3)nc12 [Example 59]
17 | – | 980 | 2500 | – | CCNC(=O)c1ccc2nc(-c3ccc(C4(N)CCC4)cc3)c(-c3ccccc3)n2n1 [Example 66, 2-[4-(1-Aminocyclobutyl)phenyl]-N-ethyl-3-phenylimidazo[1,2-b]pyridazine-6-carboxamide]
450 | – | 2000 | 2100 | 96 | COc1cc(-c2ccnn2C)c2nc(-c3ccc(C4(N)CCC4)cc3)c(-c3ccccc3)n2n1 [Example 74, 1-{4-[6-Methoxy-8-(1-methyl-1H-pyrazol-5-yl)-3-phenylimidazo[1,2-b]pyridazin-2-yl]phenyl}cyclobutanamine]

Reference: patent publication US9604989B2, “Imidazopyridazines as Akt kinase inhibitors” (Bayer Intellectual Property GmbH, priority 2011, dated 2017)
